pKi: −log10 of the molar value.
Assays:
BCL-xL = biological target: T1, BCL-xL (Homo sapiens, UniProt Q07817); experiment: Binding activity for BCL-xL (HTRF, biotin-labeled BIM); settings: His-tagged BCL-xL
T1 construct: purchased R&D 894-BX-050
Procedure: In vitro BCL-xL-binding activity was tested by the following method.
Reagents used in this experiment: His-tagged BCL-xL protein (R&D, Cat #894-BX-050); biotin-labeled BIM protein (R&D, Cat #3526/1); binding buffer (cisbio, Cat #62DLBDDF); assay buffer (cisbio, Cat #62DB1FDG); MAb anti-6His-Eu cryptate (cisbio, Cat #61HI2KLA); and affinity streptomycin linked XL665 (cisbio, Cat #611SAXLA).
The in vitro binding assay described below can determine the binding activity of test compounds for BCL-xL.
The test compounds were dissolved in dimethyl sulfoxide and diluted to gradient concentrations as required for the experiment, and the compounds at various concentrations formulated in dimethyl sulfoxide were subjected to a 100-fold dilution with a binding buffer. BCL-xL was diluted to the corresponding concentration with a binding buffer, and added to a white 384-well plate at 4 μL/well. Then the diluted test compound was added to the white 384-well plate at 2 μL/well. The plate was incubated at 25° C. for 1 h after the mixture was uniformly mixed. Biotin-labeled BIM protein was diluted to the corresponding concentration with a binding buffer, and added to a white 384-well plate at 4 μL/well. The plate was incubated at 25° C. for 2 h after the mixture was uniformly mixed. The MAb anti-6His-Eu cryptate and the affinity streptomycin linked XL665 were each diluted to the corresponding concentration with an assay buffer, and added to a white 384-well plate at 5 μL/well. The plate was incubated at 25° C. for 2-4 h after the mixture was uniformly mixed. The signal values were read with the HTRF program in a microplate reader (BMG Labtech, model: PHERAstar FS).

[1] = system: human acute lymphoblastic leukemia RS4;11 mouse subcutaneous xenograft tumor; experiment: Therapeutic effect on RS4;11 mouse subcutaneous xenograft tumor; assay type: in vivo; settings: NOD-Scid mice, RS4;11 xenograft; for Tolerability in tumor-bearing mice (weight loss) / Tumor rate TGI (%) inhibition: 10 mg/kg IV QW; for Tumor rate TGI (%) inhibition: D 20; for Mean tumor volume (mm^3) D 0: day 0, 10 mg/kg IV QW; for Mean tumor volume (mm^3) D 20: day 20, 10 mg/kg IV QW
Procedure: This experiment was performed to evaluate and compare the therapeutic effect of the compounds of the present disclosure on human acute lymphoblastic leukemia RS4;11 mouse subcutaneous xenograft tumor.
NOD-Scid mice, 5 weeks old, purchased from Beijing Huafukang Biotechnology Co., Ltd. Production license No.: SCXK (Beijing) 2019-0008; animal certification No.: 110322211100992176. Housing environment: SPF grade. 6 mice in a vehicle group, and 8 mice in a compound group.
5 mg of compound was added to 250 μL of DMSO and vortexed to provide a 20 mg/mL solution, which was diluted to the desired concentration with 30% hydroxypropyl-o-cyclodextrin (HP-3-CD, InnoStar Biotechnology Nantong Co., Ltd, Nantong).
Human acute lymphoblastic leukemia RS4;11 was purchased from American Type Culture Collection. RS4;11 cells were cultured in a 10 cm petri dish with an RPMI 1640 culture medium (Gibco) containing 10% fetal bovine serum (Gibco) and penicillin and streptomycin in an incubator at 37° C. containing 5% CO2. The cells were passaged twice a week, and then collected, counted and inoculated when in the exponential growth phase.
Each mouse was inoculated subcutaneously with 1×10^7 RS4;11 cells. When tumors grew to 100-200 mm^3, the mice were grouped according to tumor volume, intravenously (IV) injected with the drug once a week (QW) for a total of 4 times, at an injection volume of 0.1 mL/10 g body weight and a dose of 10 mg/kg.
The experimental index was to investigate the influence of the drug on the tumor growth, and the specific index was T/C % or tumor growth inhibition (TGI %).
Tumor diameters were measured twice a week with a vernier caliper and tumor volume (V) was calculated according to the following formula:
V=½×a×b^2 where a and b represent length and width, respectively.
T/C(%)=(T−T0)/(C−C0)×100,
where T and C represent the tumor volume of animals at the end of the experiment in the treatment group and control group, respectively;
T0 and C0 represent the tumor volume of animals at the beginning of the experiment in the treatment group and control group, respectively.
Tumor growth inhibition % (TGI %)=100−T/C(%).
When tumor started to regress, tumor growth inhibition % (TGI %)=100−(T−T0)/T0×100.
If the tumor had reduced volume compared with the initial volume, i.e., T<T0 or C<C0, it was defined as partial regression (PR) of tumor; if the tumor completely disappeared, it was defined as complete regression (CR) of tumor.

NCI-H146 cells = experiment: Inhibition of proliferation of NCI-H146 cells (CellTiter-Glo); assay type: cell-based; settings: Homo sapiens, 72 h, 3 days, read-out: Inhibitory activity IC50 (nM) for the proliferation of NCI-H146 cells
Procedure: (§1) In vitro inhibitory activity for the proliferation of RS4;11 cells and NCI-H146 cells was tested by the following method.
(§2) Reagents used in this experiment: RPMI-1640 medium (HyCLone, Cat #SH30243018); fetal bovine serum (Gibco, Cat #10099-141); pancreatin (Gibco, Cat #25200-072); Cell Titer-Glo (Promega, Cat #G7571).
(§3) Materials used: RS4;11 cells (Nanjing Kebai Biotechnology Co., Ltd, Cat #CBP60641); and NCI-H146 cells (ATCC, Cat #HTB-173).
(§4) The in vitro cell proliferation assay described below can determine the inhibitory activity of the test compounds for the proliferation of RS4;11 cells and NCI-H146 cells.
(§5) RS4;11 cells (or NCI-H146 cells) were cultured in an RPMI-1640 culture medium containing 10% FBS, and were passaged for 2-3 times a week in a passage ratio of 1:3 or 1:5. During passage, the cells were transferred to a centrifuge tube, and centrifuged at 1200 rpm for 3 min. The supernatant was discarded, and fresh culture medium was added to resuspend the cells. 90 μL of cell suspension was added to a 96-well cell culture plate, wherein RS4;11 cells and NCI-H146 cells were added at a density of 2.22×10^5 cells/mL. Only 100 μL of complete medium (RPMI-1640 medium containing 10% FBS) was added to the periphery of the 96-well plate. The plate was incubated in an incubator for 24 h (37° C., 5% CO2).
(§6) The test sample was diluted to a proper concentration gradient with dimethyl sulfoxide as required for the experiment. 5 μL of the solution of the test compound prepared in a gradient concentration was added to 95 μL of fresh culture medium and mixed uniformly, and then 10 μL of the culture medium containing the above compound was added to a cell culture plate. The cell culture plate was incubated in an incubator for 3 days (37° C., 5% CO2). 50 μL of CellTiter-Glo reagent was added into each well of the 96-well cell culture plate. The plate was let stand for 5-10 min away from the light at room temperature. The chemiluminescence signals were read by a microplate reader (BMG Labtech, model: PHERAstar FS) and the data were processed by GraphPad software.

RS4;11 cells = experiment: Inhibition of proliferation of RS4;11 cells (CellTiter-Glo); assay type: cell-based; settings: Homo sapiens, 72 h, 3 days, read-out: Inhibitory activity IC50 (nM) for the proliferation of RS4;11 cells
Procedure: as §1, §2, §3, §4, §5, §6

T1 sequence (Q07817 whole entry): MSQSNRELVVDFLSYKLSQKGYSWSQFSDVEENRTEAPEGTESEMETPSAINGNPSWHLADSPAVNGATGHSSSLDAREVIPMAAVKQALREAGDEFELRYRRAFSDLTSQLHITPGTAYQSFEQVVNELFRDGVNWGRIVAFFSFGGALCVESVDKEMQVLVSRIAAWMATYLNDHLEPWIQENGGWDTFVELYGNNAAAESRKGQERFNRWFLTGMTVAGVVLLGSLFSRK

Structure (SMILES)	pKi (BCL-xL)	Tolerability in tumor-bearing mice (weight loss) [1]	Tumor rate TGI (%) inhibition [1] [%]	Mean tumor volume (mm^3) D 0 [1] [mm^3]	Mean tumor volume (mm^3) D 20 [1] [mm^3]	IC50 (NCI-H146 cells) [nM]	IC50 (RS4;11 cells) [nM]
O=C(NS(=O)(=O)c1ccc(N[C@@H](CSc2ccccc2)C[C@@H]2CCCN2CCO)c(S(=O)(=O)C(F)(F)F)c1)c1ccc(N2CCC([C@@H](O)c3ccccc3-c3ccc(Cl)cc3)CC2)cc1 [Example 2-9, 4-(4-((R)-(4′-chloro-[1,1′-biphenyl]-2-yl)(hydroxy)methyl)piperidin-1-yl)-N-((4-(((R)-1-((S)-1-(2-hydroxyethyl)pyrrolidin-2-yl)-3-(phenylthio)propan-2-yl)amino)-3-((trifluoromethyl)sulfonyl)phenyl)sulfonyl)benzamide]	10.15	well tolerate	72	151.0	612.7	7	1.8
CN(CCO)CC[C@H](CSc1ccccc1)Nc1ccc(S(=O)(=O)NC(=O)c2ccc(N3CCC([C@@H](O)c4ccccc4-c4ccc(C(F)(F)F)cc4)CC3)cc2)cc1S(=O)(=O)C(F)(F)F [Example 2-10, 4-(4-((R)-hydroxy(4′-(trifluoromethyl)-[1,1′-biphenyl]-2-yl)methyl)piperidin-1-yl)-N-((4-(((R)-4-((2-hydroxyethyl)(methyl)amino)-1-(phenylthio)butan-2-yl)amino)-3-((trifluoromethyl)sulfonyl)phenyl)sulfonyl)benzamide]	10.15	well tolerate	82	151.9	443.3	4	1

From patent US20230250077A1, “SULFONYLBENZAMIDE DERIVATIVE AND CONJUGATE THEREOF, PREPARATION METHOD THEREFOR AND USE THEREOF” (Jiangsu Hengrui Pharmaceuticals Co., Ltd., priority 2020, published 2023)
